Read-outs that look alike come from different tables or passages of the source.
How the values were obtained:
[1] = tested on: HOP-62; test: COMPARE screening (NCI), GI50 in HOP-62
Source text: (§1) This in vitro prescreening system is based on the measurement of anticancer cytotoxicity against human cancer cell line panels consisting of approximately 60 cell lines of major human cancers (including leukemia, and slower growing tumor cells such as lung, colon, breast, skin, kidney, etc.) and is referred hereinafter as “COMPARE” screening.
(§2) COMPARE screening. The compounds described herein were examined for antiproliferative activity against the human cancer cell lines in the National Cancer Institute screen (COMPARE screening), in which the activity of each compound was evaluated with approximately 55 different cancer cell lines of diverse tumor origins. […] Therefore, the MGM value represents an overall assessment of toxicity of the compound across numerous cell lines.

[2] = tested on: HCT-116; test: COMPARE screening (NCI), GI50 in HCT-116
Source text: as §1, §2

[3] = tested on: SF-539; test: COMPARE screening (NCI), GI50 in SF-539
Source text: as §1, §2

[4] = tested on: UACC-62; test: COMPARE screening (NCI), GI50 in UACC-62
Source text: as §1, §2

[5] = tested on: OVCAR-3; test: COMPARE screening (NCI), GI50 in OVCAR-3; conditions: OVCAR-3, concentration corresponding to 50% growth inhibition
Source text: as §1, §2

[6] = tested on: SN12C; test: COMPARE screening (NCI), GI50 in SN12C
Source text: as §1, §2

[7] = tested on: DU-145; test: COMPARE screening (NCI), GI50 in DU-145
Source text: as §1, §2

[8] = tested on: MDA-MB-435; test: COMPARE screening (NCI), GI50 in MDA-MB-435
Source text: as §1, §2

[9] = tested on: SR
Source text: as §1, §2

[10] = tested on: all human cancer cell lines successfully tested (approximately 55); test: COMPARE screening, mean graph midpoint (MGM); format: cell-based; conditions: average GI50 over all cell lines tested, values outside 10^-8 to 10^-4 molar taken as the limits, read-out: MGM (mean graph midpoint for growth inhibition); for MGM (mean GI50 across cell lines): Homo sapiens
Source text: as §1, §2

[11] = biological target: T1, topoisomerase I (Homo sapiens, UniProt P11387); test: Topoisomerase I-mediated DNA cleavage, 3'-end-labeled 161 bp pBluescript SK(-) fragment; format: biochemical; conditions: Table 2; tested at concentrations ranging up to 10 μM; semi-quantitative relative to compound A
T1 sequence (P11387 1-765): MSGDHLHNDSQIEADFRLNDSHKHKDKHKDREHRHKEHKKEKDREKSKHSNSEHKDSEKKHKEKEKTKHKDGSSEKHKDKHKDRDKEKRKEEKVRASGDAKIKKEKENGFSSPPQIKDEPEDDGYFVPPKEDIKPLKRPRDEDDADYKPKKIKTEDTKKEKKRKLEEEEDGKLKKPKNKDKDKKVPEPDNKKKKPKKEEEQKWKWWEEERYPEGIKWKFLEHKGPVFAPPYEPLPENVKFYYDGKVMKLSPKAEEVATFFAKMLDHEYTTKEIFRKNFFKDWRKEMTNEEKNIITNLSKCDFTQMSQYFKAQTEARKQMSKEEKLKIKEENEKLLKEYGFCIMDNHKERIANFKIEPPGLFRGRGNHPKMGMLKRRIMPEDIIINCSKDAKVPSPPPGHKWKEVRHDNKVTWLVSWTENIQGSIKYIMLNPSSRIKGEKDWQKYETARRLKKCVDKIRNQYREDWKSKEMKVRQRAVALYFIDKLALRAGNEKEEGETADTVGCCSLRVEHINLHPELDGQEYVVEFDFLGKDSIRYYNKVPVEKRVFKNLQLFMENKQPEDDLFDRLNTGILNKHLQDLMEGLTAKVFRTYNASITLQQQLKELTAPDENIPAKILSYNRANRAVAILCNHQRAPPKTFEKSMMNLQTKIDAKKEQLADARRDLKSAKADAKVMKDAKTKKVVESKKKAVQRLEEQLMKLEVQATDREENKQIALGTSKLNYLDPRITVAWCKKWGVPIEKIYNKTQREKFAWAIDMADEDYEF
Protocol: The assays were carried out at room temperature for 30 min and stopped by adding 0.5% SDS. […] Topoisomerase I was present in all reaction mixtures except for the one corresponding to the first lane.
Induction of DNA cleavage.
Labeling reactions were followed by phenol-chloroform extraction and ethanol precipitation. […] Reactions were terminated by adding 0.5% SDS.
DNA Cleavage Semiquantitative Analysis. […] The rubberband baseline correction was applied with band detection sensitivity set at 90.

[12] = Homo sapiens, HOP-62, read-out: Cytotoxicity GI50, lung HOP-62, lung, HOP-62, concentration corresponding to 50% growth inhibition
[13] = Homo sapiens, HCT-116, read-out: Cytotoxicity GI50, colon HCT-116, colon, HCT-116, concentration corresponding to 50% growth inhibition
[14] = Homo sapiens, read-out: Cytotoxicity GI50, CNS SF-539
[15] = Homo sapiens, UACC-62, read-out: Cytotoxicity GI50, melanoma UACC-62, melanoma, UACC-62, concentration corresponding to 50% growth inhibition
[16] = Homo sapiens, OVCAR-3, read-out: Cytotoxicity GI50, ovarian OVCAR-3, ovarian
[17] = Homo sapiens, SN12C, read-out: Cytotoxicity GI50, renal SN12C, renal, SN12C, concentration corresponding to 50% growth inhibition
[18] = Homo sapiens, DU-145, read-out: Cytotoxicity GI50, prostate DU-145, prostate, DU-145, concentration corresponding to 50% growth inhibition
[19] = Homo sapiens, MDA-MB-435, read-out: Cytotoxicity GI50, breast MDA-MB-435, breast, MDA-MB-435, concentration corresponding to 50% growth inhibition

MGM (mean GI50 across cell lines) [10] | Top 1 Cleavage [11] | Compound | GI50 [1] | GI50 [2] | GI50 [3] | GI50 [4] | GI50 ([5]; read-out: Cytotoxicity GI50, ovarian OVCAR-3, ovarian) | GI50 [6] | GI50 [7] | GI50 [8] | GI50 [9] | IC50 [10] | GI50 [1, 12] | GI50 [2, 13] | GI50 [3, 14] | GI50 [4, 15] | GI50 [5, 16] | GI50 [6, 17] | GI50 [7, 18] | GI50 [8, 19]
 |  | COc1cc2c[n+](CCCNC(C)=O)c3c(c2cc1OC)C(=O)c1cc2c(cc1-3)OCO2 [Compound 6ab, 2,3-Dimethoxy-6-(3-N-acetylamino-1-propyl)-8,9-(methylenedioxy)-11-oxo-indeno[1,2-c]isoquinolinium Chloride] | 1 µM | 5.08 µM | 0.0968 µM | 3.43 µM | 12.2 µM | 2.76 µM | 0.907 µM | 0.466 µM | 0.0929 µM | 7.96 µM |  |  |  |  |  |  |  | 
2.01 µM | ++ (++, similar activity as compound A) | COc1cc2c3c(ncc2c(OC)c1OC)-c1c(ccc2c1OCO2)C3.Cl [Compound 9cb, 2,3,4-Trimethoxy-7,8-methylenedioxy-11H-indeno[1,2-c]isoquinoline Hydrochloride] |  |  |  |  |  |  |  |  |  |  | 0.234 µM | 0.0694 µM | 0.869 µM | 0.439 µM | 0.403 µM | 0.602 µM | > 100 µM | 0.178 µM
18.6 µM | 0 (0, no activity) | COc1ccc2c(c1OC)-c1ncc3c(OC)ccc(OC)c3c1C2.Cl [Compound 9da, 1,4,7,8-Tetramethoxy-11H-indeno[1,2-c]isoquinoline Hydrochloride] |  |  |  |  |  |  |  |  |  |  | 21.4 µM | 17.8 µM | 14 µM | 18 µM | 15.4 µM | 14.8 µM | 28.1 µM | 23.4 µM

Reference: patent US7781445B2, “Synthesis of indenoisoquinoliniums and methods of use” (Purdue Research Foundation, priority 2005, dated 2010)
